Results published in US10696693B2, “Fused imidazole derivatives as TGF-beta inhibitors” (Rigel Pharmaceuticals, Inc., priority 2014, dated 2020).
Read-outs that look alike come from different tables or passages of the source.

Key:
[1] = tested on: GDF8; assay: AlphaScreen SureFire p-SMAD3 (Ser423/425) assay, GDF8-stimulated cells; assay type: cell-based; conditions: Mus musculus
Procedure, shortened: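 A SureFire AlphaScreen assay measured phosphorylation of endogenous SMAD-3 at Ser423/425 in cell lysates. Cells were treated with three-fold serially diluted compounds in DMSO for about 10 minutes, then stimulated with GDF8. After medium removal, cells were lysed in 1× Lysis Buffer (about 25 μL) with gentle shaking for 5-10 minutes.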

[2] = tested on: TGF-β; assay: AlphaScreen SureFire p-SMAD3 (Ser423/425) assay, TGF-β-stimulated cells; assay type: cell-based; conditions: Mus musculus
Procedure, shortened: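 The p-SMAD-3 (Ser423/425) SureFire assay measured phosphorylation of endogenous SMAD-3 in cell lysates. Cells were plated overnight in collagen-coated plates, exposed to three-fold serially diluted compounds for about 10 minutes, then stimulated with TGFβ. Lysates (5 μL) received acceptor bead mix for 2 hours, then donor beads for 1½ hours before AlphaScreen reading.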

[3] = MPC-11, p-SMAD3 (Ser423/425) AlphaScreen in cell lysate, MPC11, GDF8 stimulation, read-out: GDF8: inhibition of GDF8 signaling, GDF pSMAD (MPC11)
[4] = p-SMAD3 (Ser423/425) AlphaScreen in cell lysate, MPC-11, TGF-β stimulation, read-out: TGF-β: inhibition of TGF-β signaling, TGF-β pSMAD (MPC-11)
[5] = MPC-11, read-out: GDF8: inhibition of GDF8 signaling, GDF pSMAD (MPC11), p-SMAD3 (Ser423/425) AlphaScreen in cell lysate, GDF8 stimulation
[6] = MPC-11, read-out: TGF-β: inhibition of TGF-β signaling, TGF-β pSMAD (MPC-11), p-SMAD3 (Ser423/425) AlphaScreen in cell lysate, TGF-β stimulation

SMILES	IC50 [1, 3] [nM]	IC50 [2, 4] [nM]	IC50 [1, 5] [nM]	IC50 [2, 6] [nM]
Cc1cc(-c2nc3n(c2-c2ccc4ncccc4c2)CCC3)c(C)cc1F [Compound 311, 6-(2-(4-fluoro-2,5-dimethylphenyl)-6,7-dihydro-5H-pyrrolo[1,2-a]imidazol-3-yl)quinoline]	100 to 1000	> 1000		
Fc1ccc(Cl)cc1-c1nc2n(c1-c1ccc3ncsc3c1)CCC2 [Compound 339, 6-(2-(5-chloro-2-fluoropheny)-6,7-dihydro-5H-pyrrolo[1,2-a]imidazol-3-yl)benzo[d]thiazole]	< 50	< 50		
Fc1cc(-c2nc3n(c2-c2ccc4nccnc4c2)CCC3)c(F)cc1Cl [Compound 241, 6-(2-(4-chloro-2,5-difluorophenyl)-6,7-dihydro-5H-pyrrolo[1,2-a]imidazol-3-yl)quinoxaline]	> 1000	> 1000		
Cc1c(F)ccc(-c2nc3n(c2-c2ccc4ncnn4c2)CCC3)c1C [Compound 73, 6-(2-(4-fluoro-2,3-dimethylphenyl)-6,7-dihydro-5H-pyrrolo[1,2-a]imidazol-3-yl)-[1,2,4]triazolo[1,5-a]pyridine]			100 to 1000	> 1000
Cc1cc(-c2nc3n(c2-c2ccc4[nH]ncc4c2)CCC3)cc(C)c1Cl [Compound 243, 5-(2-(4-chloro-3,5-dimethylphenyl)-6,7-dihydro-5H-pyrrolo[1,2-a]imidazol-3-yl)-1H-indazole]	> 1000	> 1000		
Nc1ncnc2ccc(-c3c(-c4cc(F)c(F)cc4F)nc4n3CCC4)cc12 [Compound 345, 6-(2-(2,4,5-trifluorophenyl)-6,7-dihydro-5H-pyrrolo[1,2-a]imidazol-3-yl)quinazolin-4-amine]	< 50	50 to 100		
Fc1cccc(-c2nc3n(c2-c2ccc4c(c2)OCO4)CCC3)c1 [Compound 223, 3-(benzo[d][1,3]dioxol-5-yl)-2-(3-fluorophenyl)-6,7-dihydro-5H-pyrrolo[1,2-a]imidazole]	> 1000	> 1000		
COCCOc1cnc2ccc(-c3c(-c4cc(C)ccc4F)nc4n3CCC4)cc2n1 [Compound 358, 7-(2-(2-fluoro-5-methylphenyl)-6,7-dihydro-5H-pyrrolo[1,2-a]imidazol-3-yl)-2-(2-methoxyethoxy)quinoxaline]			100 to 1000	100 to 1000
[N-]=[N+]=NCC1CCC2(CC1)Cc1nc(-c3ccc(F)cc3)c(-c3ccc4ncnn4c3)n1C2 (centres unmarked) [Compound 85, 3′-([1,2,4]triazolo[1,5-a]pyridin-6-yl)-4-(azidomethyl)-2′-(4-fluorophenyl)-5′H,7′H-spiro[cyclohexane-1,6′-pyrrolo[1,2-a]imidazole]]	> 1000	> 1000		
Fc1ccc(-c2nc3n(c2-c2ccc4nccn4c2)CC2(CCCC2)C3)cc1 [Compound 72, 2′-(4-fluorophenyl)-3′-(imidazo[1,2-a]pyridin-6-yl)-5′H,7′H-spiro[cyclopentane-1,6′-pyrrolo[1,2-a]imidazole]]	> 1000	> 1000		
Fc1ccccc1-c1nc2n(c1-c1ccc3cn[nH]c3c1)CCC2 [Compound 198, 6-(2-(2-fluorophenyl)-6,7-dihydro-5H-pyrrolo[1,2-a]imidazol-3-yl)-1H-indazole]	> 1000	> 1000		
Cc1ccc(Cl)cc1-c1nc2n(c1-c1ccc3nccnc3c1)CCC2 [Compound 342, 6-(2-(5-chloro-2-methylpheny)-6,7-dihydro-5H-pyrrolo[1,2-a]imidazol-3-yl)quinoxaline]	100 to 1000	100 to 1000		
O=C(O)C1Cn2c(nc(-c3cc(F)cc(F)c3F)c2-c2ccc3ncnn3c2)N1 (centres unmarked) [Compound 118, 5-([1,2,4]triazolo[1,5-a]pyridin-6-yl)-6-(2,3,5-trifluorophenyl)-2,3-dihydro-1H-imidazo[1,2-a]imidazole-2-carboxylic acid]	< 50	< 50		
Fc1ccc(-c2nc3occn3c2-c2ccc3nccn3c2)cc1F [Compound 137, 6-(3,4-difluorophenyl)-5-(imidazo[1,2-a]pyridin-6-yl)imidazo[2,1-b]oxazole]	< 50	50 to 100		
CN(C)CC1CCC2(CC1)Cc1nc(-c3ccc(F)cc3)c(-c3ccc4ncnn4c3)n1C2 (centres unmarked) [Compound 87, 1-(3′-([1,2,4]triazolo[1,5-a]pyridin-6-yl)-2′-(4-fluorophenyl)-5′H,7′H-spiro[cyclohexane-1,6′-pyrrolo[1,2-a]imidazol]-4-yl)-N,N-dimethylmethanamine]	> 1000	> 1000		
Cc1ccc(-c2nc3n(c2-c2ccc4ncnn4c2)CCC3)c(F)c1F [Compound 26, 6-(2-(2,3-difluoro-4-methylphenyl)-6,7-dihydro-5H-pyrrolo[1,2-a]imidazol-3-yl)-[1,2,4]triazolo[1,5-a]pyridine]	> 1000	> 1000		
Cc1cc(-c2nc3n(c2-c2ccc4ncnn4c2)CCC3)cc(Cl)c1F [Compound 40, 6-(2-(3-chloro-4-fluoro-5-methylphenyl)-6,7-dihydro-5H-pyrrolo[1,2-c]imidazol-3-yl)-[1,2,4]triazolo[1,5-c]pyridine]	> 1000	> 1000		

SMILES	IC50 [1, 3] [nM]	IC50 [2, 4] [nM]	IC50 [1, 5] [nM]	IC50 [2, 6] [nM]
Fc1cc(Cl)c(-c2nc3n(c2-c2ccc4nccnc4c2)CCC3)cc1F [Compound 291, 6-(2-(2-chloro-4,5-difluorophenyl)-6,7-dihydro-5H-pyrrolo[1,2-a]imidazol-3-yl)quinoxaline]			50 to 100	100 to 1000
Fc1cc(-c2nc3n(c2-c2ccc4ncnn4c2)CCC3)c(F)cc1Cl [Compound 18, 6-(2-(4-chloro-2,5-difluorophenyl)-6,7-dihydro-5H-pyrrolo[1,2-a]imidazol-3-yl)-[1,2,4]triazolo[1,5-a]pyridine]	100 to 1000	> 1000		
Fc1ccc(-c2nc3n(c2-c2ccc4ncsc4c2)CCC3)cc1 [Compound 174, 6-(2-(4-fluorophenyl)-6,7-dihydro-5H-pyrrolo[1,2-a]imidazol-3-yl)benzo[d]thiazole]			50 to 100	100 to 1000
Cc1cccc(-c2nc3n(c2-c2ccc4[nH]ncc4c2)CCC3)c1 [Compound 168, 5-(2-(m-tolyl)-6,7-dihydro-5H-pyrrolo[1,2-a]imidazol-3-yl)-1H-indazole]	< 50	50 to 100		
Fc1ccc(-c2nc3n(c2-c2ccc4ncccc4c2)CCC3)c(F)c1 [Compound 211, 6-(2-(2,4-difluorophenyl)-6,7-dihydro-5H-pyrrolo[1,2-a]imidazol-3-yl)quinoline]	100 to 1000	100 to 1000		
Cc1cccc(-c2nc3occn3c2-c2ccc3ncsc3c2)c1 [Compound 141, 5-(benzo[d]thiazo-6-yl)-6-(m-tolyl)imidazo[2,1-b]oxazole]	< 50	< 50		
Fc1cc(F)c(-c2nc3n(c2-c2ccc4nccn4c2)CCC3)cc1F [Compound 12]	< 50	100 to 1000		
Fc1ccc(-c2nc3n(c2-c2ccc4ncccc4c2)CC2(CCCC2)C3)cc1 [Compound 327, 2′-(4-fluorophenyl)-3′-(quinolin-6-yl)-5′H,7′H-spiro[cyclopentane-1,6′-pyrrolo[1,2-a]imidazole]]			> 1000	> 1000
Fc1cccc(-c2nc3n(c2-c2ccc4cn[nH]c4c2)CCC3)c1 [Compound 194, 6-(2-(3-fluorophenyl)-6,7-dihydro-5H-pyrrolo[1,2-a]imidazol-3-yl)-1H-indazole]			100 to 1000	> 1000
Fc1cc(F)c(-c2nc3occn3c2-c2ccc3ncsc3c2)cc1F [Compound 151, 5-(benzo[d]thiazol-6-yl)-6-(2,4,5-trifluorophenyl)imidazo[2,1-b]oxazole]	< 50	< 50		
FC(F)(F)c1cccc(-c2nc3n(c2-c2ccc4ncsc4c2)CCC3)c1 [Compound 183, 6-(2-(3-(trifluoromethyl)phenyl)-6,7-dihydro-5H-pyrrolo[1,2-a]imidazol-3-yl)benzo[d]thiazole]	50 to 100	100 to 1000		
Cc1cccc(-c2nc3occn3c2-c2ccc3nccn3c2)c1 [Compound 143, 6-(m-tolyl)-5-(imidazo[1,2-a]pyridin-6-yl)imidazo[2,1-b]oxazole]	< 50	< 50		
Cc1ccc(F)cc1-c1nc2n(c1-c1ccc3ncccc3c1)CCC2 [Compound 303]	> 1000	> 1000		
Cc1ccccc1-c1nc2n(c1-c1ccc3ncccc3c1)CCC2 [Compound 307, 6-(2-(o-tolyl)-6,7-dihydro-5H-pyrrolo[1,2-a]imidazol-3-yl)quinoline]	> 1000	> 1000		
Cc1cccc(-c2nc3occn3c2-c2ccc3[nH]ncc3c2)c1 [Compound 139, 6-(m-tolyl)-5-(1H-indazol-5-yl)imidazo[2,1-b]oxazole]	< 50	< 50		
Fc1cc(F)c(-c2nc3n(c2-c2ccc4ncsc4c2)CCN3)cc1F [Compound 103, 6-(6-(2,4,5-trifluorophenyl)-2,3-dihydro-1H-imidazo[1,2-a]imidazol-5-yl)benzo[d]thiazole]	< 50	< 50		
Fc1ccc(-c2nc3n(c2-c2ccc4nccnc4c2)CCC3)cc1Cl [Compound 266, 6-(2-(3-chloro-4-fluoropheny)-6,7-dihydro-5H-pyrrolo[1,2-a]imidazol-3-yl)quinoxaline]	50 to 100	100 to 1000		
